Where two headings read alike, the source gives them in different places.
What was measured:
[1] = human, in vivo
[2] = tested on: patients with treatment resistant depression (TRD); experiment: Phase 3 randomized, double-blind, active controlled trial of DM/BU in treatment resistant depression
From the text: Inclusion criteria for the open-label period included males or females 18-65 years of age, a history of inadequate response to 1 or 2 prior antidepressant treatments, established by the Antidepressant Treatment Response Questionaire (ATRQ), and a Hamilton Depression Rating Scale (HAMD-17) total score of ≥18. Inclusion criteria for the double-blind period included inadequate response to 2 or 3 prior antidepressant treatments, including open-label period failure. Exclusion criteria included a history of electroconvulsive therapy, vagus nerve stimulation, transcranial magnetic stimulation, or any experimental central nervous system treatment during the current episode or in the past 6 months, schizophrenia, bipolar disorder, obsessive compulsive disorder, psychiatric symptoms secondary to any other general medical condition.
The change in depressive symptoms over time was measured using the Montgomery-Asberg Depression Rating Scale (MADRS) and the Quick Inventory of Depressive Symptomatology-Self-Rated (QIDS-SR-16). The primary endpoint was the change from baseline in the MADRS after 6 weeks of treatment. The key secondary endpoints were the change from baseline in the MADRS after 1 week of treatment, after 2 weeks of treatment, the average change over entire 6-week double-blind treatment period, and the Sheehan Disability Scale (SDS). Other pre-specified secondary efficacy variables included the Cognitive subscale of the Massachusetts General Hospital Cognitive and Physical Functioning Questionnaire (CPFQ), and the Hamilton Anxiety Scale (HAM-A).

[3] = tested on: dextromethorphan metabolism (dextromethorphan/dextrorphan metabolic ratio); conditions: human, in vivo, 3 h
Method: (§1) Plasma concentrations of dextromethorphan and dextrorphan 3 hours after dosing were used, with a dextromethorphan/dextrorphan ratio of 0.3 or greater indicating a poor metabolizer phenotype.

[4] = tested on: patients with agitation associated with Alzheimer's disease; experiment: Phase 2/3 randomized, double-blind, controlled trial of DM/BU in agitation associated with Alzheimer's disease
Method: (§2) A Phase 2/3 randomized, double-blind, controlled, multicenter, U.S. clinical trial was conducted to evaluate the efficacy and safety of DM/BU in patients with agitation associated with Alzheimer's disease. […] Subsequently, patients were randomized in a 1:1 ratio to receive DM/BU or placebo. […] The minimum score on the CMAI is 29, corresponding to the total absence of symptoms, with higher scores corresponding to greater agitation. The primary endpoint of the study was the change from baseline in the CMAI total score at Week 5. P-values were calculated based on least square mean estimates.

[5] = tested on: metabolism of dextromethorphan to dextrorphan in human liver microsomes; experiment: Inhibition of the metabolism of dextromethorphan in human liver microsomes; conditions: human, human liver microsomes, pH 7.4, probe dextromethorphan (5 μM)
Method: (§3) The ability of various antidepressant compounds to inhibit the metabolism of dextromethorphan was examined using human liver microsomes.
(§4) After optimal incubation at 37° C., the reactions were terminated by addition of methanol containing internal standard for analytical quantification. The quenched samples were incubated at 4° C. for 10 minutes and centrifuged at 4° C. for 10 minutes. The supernatant was removed, and the metabolite of dextromethorphan (dextrorphan) was analyzed by LC-MS/MS.

[6] = tested on: patients with agitation associated with Alzheimer's disease; conditions: both, human, in vivo, 5 weeks
Method: as §2

[7] = tested on: adult patients with moderate to severe major depressive disorder (MDD); experiment: Phase 2 randomized, double-blind, active-controlled trial of DM/BU in major depressive disorder; assay type: in vivo, human; conditions: twice daily for 6 weeks; DM/BU 45 mg/105 mg or bupropion 105 mg
Method: The changes from baseline in the Montgomery-Asberg Depression Rating Scale (MADRS) total score over the 6-week treatment period were calculated at each time point and averaged.

[8] = tested on: daily smokers using 10 or more cigarettes per day (nicotine addiction); experiment: Phase 2 randomized, double-blind, active-controlled study of DM/BU for smoking cessation treatment; assay type: in vivo, human
From the text: Enrolled subjects were daily smokers using 10 or more cigarettes per day.
The primary outcome measure was the change in smoking intensity, measured using the number of cigarettes smoked per day, assessed via daily smoking diaries.

[9] = tested on: metabolism of dextromethorphan in human liver microsomes; experiment: Inhibition of the metabolism of dextromethorphan in human liver microsomes; conditions: read-out: Mean IC50; human liver microsomes 0.5 mg/mL, dextromethorphan 5 μM, 37° C.; dextrorphan formation
Method: as §3, §4

[10] = tested on: metabolism of dextromethorphan in human liver microsomes
Method: as §3, §4

[11] = tested on: dextromethorphan metabolism (dextromethorphan/dextrorphan metabolic ratio); experiment: Phenotypic determination of dextromethorphan metabolizer status (dextromethorphan/dextrorphan metabolic ratio); conditions: Day 8; 3 hours after dosing
Method: as §1

[12] = Pharmacokinetic study of dextromethorphan (DM) alone or DM in combination with bupropion, plasma concentrations by LC-MS/MS; conditions: for Cmax: Dextromethorphan Cmax; for average plasma concentration: Day 8, after bupropion administration
[13] = tested on: metabolism of dextromethorphan to dextrorphan in human liver microsomes; experiment: in vitro; conditions: pH 7.4
Method: as §3, §4

[14] = DM/BU 45 mg/105 mg or bupropion 150 mg twice daily
[15] = Open-label Period, bupropion 150 mg twice daily

SMILES: CC(NC(C)(C)C)C(=O)c1cccc(Cl)c1.Cl (racemic) [Bupropion]
- reduction in mean dextrorphan AUC0-12 [1]: ~55%
- reduction in mean dextrorphan Cmax [1]: ~78%
- mean reduction in MADRS averaged over the entire 6-week treatment period [2, 14]: 6.7
- mean reduction in QIDS-SR-16 averaged over the entire 6-week treatment period [2, 14]: 2.3
- Anxiety, number of subjects ([2]; Double-blind Period): 0 subjects
- Any TEAE, % of subjects ([2]; Double-blind Period): (39.1%)
- Any TEAE, number of subjects ([2]; Double-blind Period): 61 subjects
- Constipation, % of subjects ([2]; Double-blind Period): (1.9%)
- Constipation, number of subjects ([2]; Double-blind Period): 3 subjects
- Dizziness, number of subjects ([2]; Double-blind Period): 0 subjects
- Dry mouth, % of subjects ([2]; Double-blind Period): (1.9%)
- Dry mouth, number of subjects ([2]; Double-blind Period): 3 subjects
- Headache, % of subjects ([2]; Double-blind Period): (4.5%)
- Headache, number of subjects ([2]; Double-blind Period): 7 subjects
- Insomnia, % of subjects ([2]; Double-blind Period): (3.2%)
- Insomnia, number of subjects ([2]; Double-blind Period): 5 subjects
- Irritability, % of subjects ([2]; Double-blind Period): (1.3%)
- Irritability, number of subjects ([2]; Double-blind Period): 2 subjects
- Nausea, % of subjects ([2]; Double-blind Period): (1.9%)
- Nausea, number of subjects ([2]; Double-blind Period): 3 subjects
- rate of discontinuation due to adverse events ([2]; Double-blind Period): 1.9%
- Anxiety, % of subjects ([2]; Open-label Period): (3.5%)
- Anxiety, number of subjects ([2]; Open-label Period): 11 subjects
- Constipation, % of subjects ([2]; Open-label Period): (4.2%)
- Constipation, number of subjects ([2]; Open-label Period): 13 subjects
- Dizziness, % of subjects ([2]; Open-label Period): (2.9%)
- Dizziness, number of subjects ([2]; Open-label Period): 9 subjects
- Dry mouth, % of subjects ([2]; Open-label Period): (4.2%)
- Dry mouth, number of subjects ([2]; Open-label Period): 13 subjects
- Headache, % of subjects ([2]; Open-label Period): (4.5%)
- Headache, number of subjects ([2]; Open-label Period): 14 subjects
- Insomnia, % of subjects ([2]; Open-label Period): (6.1%)
- Insomnia, number of subjects ([2]; Open-label Period): 19 subjects
- Irritability, % of subjects ([2]; Open-label Period): (3.2%)
- Irritability, number of subjects ([2]; Open-label Period): 10 subjects
- Nausea, % of subjects ([2]; Open-label Period): (7.1%)
- Nausea, number of subjects ([2]; Open-label Period): 22 subjects
- Any TEAE, % of subjects [2, 15]: (43.5)
- Any TEAE, number of subjects [2, 15]: 135 subjects
- mean MADRS reduction ([2]; Week 1): 3.6
- mean MADRS reduction ([2]; Week 2): 6.1
- rate of remission from depression (QIDS-SR-16 ≤5) ([2]; Week 6): 8.2%
- mean MADRS reduction ([2]; Week 6 (primary endpoint)): 9.4
- subjects converted to poor metabolizer status [3]: 100%
- Deaths, % of subjects ([4]; Safety Population): (2.0%
- Deaths, number of subjects ([4]; Safety Population): 1 subjects
- Deaths, number of subjects ([4]; Safety Population, listed as bupropion): one
- mean reduction from baseline in the CMAI total score ([4]; Week 5 (primary endpoint)): 10.0 points
- IC50 [5]: 9.1 µM
- Diarrhea, number of subjects [6]: 3 subjects
- Discontinuation due to AEs, number of subjects [6]: 1 subjects
- Dizziness, number of subjects [6]: 5 subjects
- Falls, % of subjects [6]: (14.3%)
- Falls, number of subjects [6]: 7 subjects
- Fatigue, % of subjects [6]: (10.2%)
- Fatigue, number of subjects [6]: 5 subjects
- Headache, % of subjects [6]: (6.1%)
- Headache, number of subjects [6]: 3 subjects
- Insomnia, % of subjects [6]: (6.1%)
- Insomnia, number of subjects [6]: 3 subjects
- Serious AEs, number of subjects [6]: 4 subjects
- Somnolence, number of subjects [6]: 2 subjects
- Subjects with any TEAE, % of subjects [6]: (61.2%)
- Subjects with any TEAE, number of subjects [6]: 30 subjects
- Change in MADRS Total Score at week 6 [7]: −12.1
- Change in MADRS Total Score over 6-week period (averaged) [7]: −8.8
- proportion of smokers with more than 50% reduction in expired carbon monoxide levels ([8]; 3-week period): 30.4%
- average reduction in cigarettes smoked per day ([8]; over the 3-week period, twice daily): 6.79 cigarettes per day

SMILES: C[C@@H]1NC(C)(C)CO[C@@]1(O)c1cccc(Cl)c1 [(25,3S)-Hydroxybupropion]
- IC50 [9]: 12.5 µM

SMILES: C[C@H]1NC(C)(C)CO[C@]1(O)c1cccc(Cl)c1 [(R,R)-Hydroxybupropion]
- IC50 [9]: 8.2 µM

SMILES: CNCC[C@H](Oc1cccc2ccccc12)c1cccs1 [(S)-Duloxetine]
- IC50 [10]: 4.1 µM

SMILES: CN(C)CCCC1(c2ccc(F)cc2)OCc2cc(C#N)ccc21 (centres unmarked) [Citalopram]
- IC50 [5]: 14.1 µM

SMILES: CN(C)CC(c1ccc(O)cc1)C1(O)CCCCC1 (centres unmarked) [Desvenlafaxine]
- IC50 [5]: 97.3 µM

SMILES: COc1ccc2c(c1)[C@]13CCCC[C@@H]1[C@H](C2)N(C)CC3 [Dextromethorphan]
- mean plasma dextromethorphan/dextrorphan metabolic ratio [11]: remained unchanged
- Mean Trough Dextromethorphan Plasma Concentrations ([12]; Day 1): 0.7 ng/mL
- Mean Trough Dextromethorphan Plasma Concentrations ([12]; Day 5): 1.2 ng/mL
- Mean Trough Dextromethorphan Plasma Concentrations ([12]; Day 6): 1.3 ng/mL
- Mean Trough Dextromethorphan Plasma Concentrations ([12]; Day 7): 1.2 ng/mL
- Dextromethorphan Cavg ([12]; Day 8): 2.3 ng/mL
- Dextromethorphan Cmin ([12]; Day 8): 1.1 ng/mL
- Mean Trough Dextromethorphan Plasma Concentrations ([12]; Day 8): 1.1 ng/mL
- mean elimination half-life (T1/2 el) of dextromethorphan ([12]; Day 8): 6.6 h
- AUC(0-inf) ([12]; human, in vivo, 60 mg): 41.2 ng·h/mL
- Tmax ([12]; human, in vivo, 60 mg): 2.3 h
- concentration at 0 h ([12]; human, in vivo, 60 mg): 1.2 ng/mL
- concentration at 1 h ([12]; human, in vivo, 60 mg): 2.4 ng/mL
- concentration at 2 h ([12]; human, in vivo, 60 mg): 3.6 ng/mL
- concentration at 3 h ([12]; human, in vivo, 60 mg): 3.6 ng/mL
- concentration at 4 h ([12]; human, in vivo, 60 mg): 3.3 ng/mL
- concentration at 6 h ([12]; human, in vivo, 60 mg): 2.5 ng/mL
- concentration at 8 h ([12]; human, in vivo, 60 mg): 1.9 ng/mL
- concentration at 12 h ([12]; human, in vivo, 60 mg): 1.1 ng/mL
- concentration at 24 h ([12]; human, in vivo, 60 mg): 0.4 ng/mL
- concentration at 36 h ([12]; human, in vivo, 60 mg): 0.1 ng/mL
- AUC(0-t) ([12]; human, in vivo, 60 mg, Dextromethorphan AUC0-12, Day 1): 20.1 ng·h/mL
- AUC(0-t) ([12]; human, in vivo, 60 mg, Dextromethorphan AUC0-12, Day 8): 28.1 ng·h/mL
- AUC(0-t) ([12]; human, in vivo, 60 mg, Dextromethorphan AUC0-24, Day 8): 37.1 ng·h/mL
- Cmax ([12]; human, in vivo, 60 mg, Day 1): 3 ng/mL
- Cmax ([12]; human, in vivo, 60 mg, Day 8): 3.8 ng/mL

SMILES: CC(NC(C)(C)C)C(O)c1cccc(Cl)c1 (centres unmarked) [Erythrohydroxybupropion]
- average plasma concentration [12]: ≥ 20 ng/mL
- IC50 [9]: 1.4 µM

SMILES: CN(C)CCC[C@@]1(c2ccc(F)cc2)OCc2cc(C#N)ccc21 [Escitalopram]
- IC50 [5]: 17.1 µM

SMILES: COCCCC/C(=N\OCCN)c1ccc(C(F)(F)F)cc1 [Fluvoxamine]
- IC50 [5]: 6.5 µM

SMILES: C[C@H](NC(C)(C)C)[C@@H](O)c1cccc(Cl)c1 [Threohydroxybupropion]
- average plasma concentration [12]: ≥ 100 ng/mL
- IC50 [9]: 3.9 µM

SMILES: COc1ccc(C(CN(C)C)C2(O)CCCCC2)cc1 (centres unmarked) [Venlafaxine]
- IC50 [13]: 27.7 µM

SMILES: C[C@H]1NC(C)(C)CO[C@]1(O)c1cccc(Cl)c1 [hydroxybupropion]
- average plasma concentration [12]: ≥ 200 ng/mL

Source: patent publication US12569479B2 (priority 2016, dated 2026)
